The values that follow come from patent publication US20060088475A1, “Self-immolative magnetic resonance imaging contrast agents sensitive to beta-glucuronidase” (Northwestern University, priority 2004, published 2006).

Bounds are passed on as bounds.

Data set [1] is described as follows: T1 relaxivity at 60 MHz, 37° C. (inversion recovery, Gd(III) concentration by ICP-MS). The format is physicochemical. The conditions noted are these: for relaxivity r1 / increase in relaxivity on going from anion mimic to human serum: 37° C.; for decrease of relaxivity on addition of carbonate to the buffers: 24 mM carbonate added to MOPS or phosphate/BSA buffer; for decline of relaxivity in anion extracellular mimic: anion extracellular mimic (100 mM NaCl, 0.9 mM Na2HPO4, 30 mM NaHCO3, 0.13 mM sodium citrate, 2.3 mM sodium lactate) versus carbonate-containing buffers; for increase in relaxivity on going from anion mimic to human serum: male human blood serum versus extracellular anion mimic. How it is done:
A 4 mM stock solution of either 1 or 2 in the appropriate buffer was diluted to give 500 μL each of seven approximate concentrations for each run: 0, 0.05, 0.15, 0.3, 0.5, 1.0, and 2.0 mM. The T1 of each concentration was determined using an inversion recovery pulse sequence with appropriate recycle delays on a Bruker mq60 Minispec. This instrument has a proton Larmor frequency of 60 MHz and operates at 37° C. The resulting curves were fit to a monoexponential function to obtain T10.10 μL of each sample was digested in concentrated nitric acid, diluted with water and analyzed for exact Gd(III) concentration using ICP-MS. The reciprocal of the longitudinal relaxation time was plotted against the concentration obtained from ICP-MS and fit to a straight line. All lines fit with R^2>0.998. This was performed for each buffer in duplicate. The buffers were all made to have the appropriate pH at 37° C. and remade if the pH had drifted more than 0.05 pH units upon storage. Anion mimic and carbonate containing buffers were made fresh daily.

The target of data set [2] is T1, bovine liver β-glucuronidase (Bos taurus, UniProt A3KMY8).
T1 construct: β-glucuronidase isolated from bovine liver was chosen for the current studies; purchased Sigma G 0251; host or cells: bovine liver (tissue isolate)
T1 sequence (A3KMY8 1-652): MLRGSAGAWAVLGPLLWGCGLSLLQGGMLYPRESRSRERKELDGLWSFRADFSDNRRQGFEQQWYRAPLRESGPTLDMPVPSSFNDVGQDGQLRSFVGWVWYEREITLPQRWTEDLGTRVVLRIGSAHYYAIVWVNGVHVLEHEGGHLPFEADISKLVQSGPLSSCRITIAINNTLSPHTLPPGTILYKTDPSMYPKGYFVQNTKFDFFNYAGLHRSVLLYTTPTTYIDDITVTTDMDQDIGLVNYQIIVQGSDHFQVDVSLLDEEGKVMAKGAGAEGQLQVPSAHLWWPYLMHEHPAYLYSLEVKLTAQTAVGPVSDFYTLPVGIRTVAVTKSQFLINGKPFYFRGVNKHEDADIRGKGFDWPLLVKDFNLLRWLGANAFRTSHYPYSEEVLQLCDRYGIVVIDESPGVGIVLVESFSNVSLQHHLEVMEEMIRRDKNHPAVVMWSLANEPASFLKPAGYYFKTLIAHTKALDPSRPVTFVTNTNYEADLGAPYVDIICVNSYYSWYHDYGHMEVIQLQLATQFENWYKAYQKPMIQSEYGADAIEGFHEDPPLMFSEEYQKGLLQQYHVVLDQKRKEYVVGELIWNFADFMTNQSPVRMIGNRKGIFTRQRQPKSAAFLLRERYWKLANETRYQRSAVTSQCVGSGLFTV
Nature of the data set: Enzyme catalyzed hydrolysis kinetics monitored by UV-visible. The format is biochemical. The conditions noted are these: for initial rate: 0.2 mM 1, 1.0 mg/ml enzyme, pH 7.4, 37° C. As for the experimental part: (§1) General: Bovine liver β-glucuronidase (Type B-1, Sigma G 0251) stability in several buffers was assayed by incubating the enzyme in the desired buffer and sampling its activity at various time intervals using the Sigma quality control assay for β-glucuronidase from bovine liver. It was determined that MOPS and anion mimic (See, e.g., Parker, D. In Crown Compounds: Towards Future Applications; Cooper, S. R., Ed.; VCH: New York, 1992, pp 51-67) engendered the enzyme with poor stability, while 100 mM phosphate with 0.01% (w/v) bovine serum albumin (BSA), pH=7.4 at 37° C. gave suitable stability (>2 h at 37° C. without loss of activity) provided the enzyme concentration was greater than 0.5 mg/ml. The enzyme was stable for at least 24 h at 37° C. at its native pH of 5.0 in 100 mM acetate buffer. All kinetics measurements were made with 0.2 mM substrate, 1, in 510 μL buffer with either 1.0 mg/ml enzyme (those buffers at pH=7.4) or 0.1 mg/ml enzyme (pH=5.0 acetate buffer). For all buffers except serum (due to its opacity), the kinetics were determined simultaneously by both UV-visible and magnetic resonance. The runs were all continuous assays that are known to give the best data (See, e.g., Marangoni, A. G. Enzyme kinetics: a modern approach; Wiley-Interscience: Hoboken, N.J., 2003; Copeland, R. A. Enzymes: a practical introduction to structure, mechanism, and data analysis; VCH Publishers: New York, N.Y., 1996). Each run was performed in triplicate and two controls, one without enzyme and one without substrate, were also measured. […] This trend is in the opposite direction of the kinetics runs that show an increase in T1.
UV-visible: The enzymatic hydrolysis of the pyranose from 1 and subsequent linker decomposition generates 4-hydroxy-3-nitrobenzyl alcohol. This compound has a maximum absorbance of 422 nm at pH=7.4. The molar absorptivity, E, was determined in triplicate from 0-0.2 mM, on an HP 8452A diode array spectrometer thermostated to 37° C. For 100 mM phosphate, 0.01% (w/v) BSA, pH=7.4 at 37° C. it is 2840±40 M^−1 cm^−1. For 100 mM phosphate, 24 mM NaHCO3, 0.01% (w/v) BSA, pH=7.4 at 37° C. it is 3010±50 M^−1 cm^−1. […] At pH=5.0 in acetate buffer, the maximum is at 354 nm. This overlaps with substrate, 1, absorption. The kinetics were sampled on the HP 8452A at 37° C. every 20 seconds for an hour. The initial rates for pH=7.4 buffers were determined through a linear fit of the first 10% change in absorbance. For the acetate buffer, only a half-life of conversion is reported. […] 4-hydroxy-3-nitrobenzyl alcohol was also present in the acetate runs as determined by LC-MS using 100 mM acetate pH=5 as solvent A.

Data set [3] has as its target T1, bovine liver β-glucuronidase. Nature of the data set: Enzyme catalyzed hydrolysis kinetics monitored by bulk water T1 relaxation (magnetic resonance). The format is biochemical. As for the experimental part: as §1
(§2) Magnetic Resonance: T1 was determined at intervals of 2 minutes for the first 30 min and 4 minutes for the next 30 min using a saturation recovery (90-T-90) pulse sequence using the Bruker mq60 operating as detailed in the relaxivity section. This sequence is less accurate than the inversion recovery method, but gives faster results. The runs were performed in triplicate. The substrate-only control was also examined in this manner.

The test system of data set [4] is bovine liver β-glucuronidase. The description is as above. The format is biochemical. The following applies: acetate buffer, over the course of an hour, no enzyme. As for the experimental part: as §1, §2
Data set [5] deals with T1, bovine liver β-glucuronidase. Nature of the data set: LC-MS analysis of the enzyme reaction mixture. The format is biochemical. The conditions noted are these: phosphate buffer with 0.01% BSA, pH=7.4, 37° C., after 24 h. How it is done:
LC-MS. […] The alcohol and 1 are readily distinguished by their absorption spectra (PDA), their appropriate negative mode ESI-MS patterns and through spiking with authentic compound. 2 was more difficult to detect but could be observed using fluorescence. The HPLC method was as follows: 0-10% B over 10 min, hold at 10% B for 15 min, with fluorescence using λex=271 nm, λem=314 nm.

Data set [6] is described as follows: Determination of q via Eu(III) phosphorescence lifetimes in H2O and D2O. The format is physicochemical. As for the experimental part:
Determination of q: Europium(III) compound 4 was dissolved in H2O and D2O. The emission was monitored at 614 nm with excitation at 394 nm on a Hitachi F4500 fluorometer operating in Phosphorescence Lifetime (short) mode. The shortest lifetime measurable with this instrument is about 0.3 ms. Fifteen scans were averaged and fit to a monoexponential decay to give phosphorescent lifetimes. T(D2O)=1.274 ms; T (H2O)=0.527 ms. Using the equation of Supkowski and Horrocks (See, e.g., Supkowski and Horrocks, Inorg. Chim. Acta 2002, 340, 44-48), q=0.89 while the equation from Beeby et al. ^40generates q=1.04.

The conditions of data set [7]: phenol of the linker; cited from earlier work.
The mark [8] stands for this setting: 10 mM MOPS, 100 mM NaCl, pH=7.4, 60 MHz.
Where [9] appears, read: 10 mM pyridine, 100 mM sodium chloride buffer, pH=5.0, 60 MHz.
Setting [10] is: 100 mM acetate buffer, pH=5.0, 60 MHz.
Where [11] appears, read: 100 mM sodium phosphate, 0.01% (w/v) BSA, pH=7.4, 60 MHz.

With `O=C([O-])CN1CCN(CCNC(=O)OCc2ccc(O[C@@H]3O[C@H](C(=O)O)[C@@H](O)[C@H](O)[C@H]3O)c([N+](=O)[O-])c2)CCN(CC(=O)[O-])CCN(CC(=O)[O-])CC1.[Gd+3]` [Compound 1, Gadolinium(III) 1-(4-(2-(1-(4,7,10-tris-carboxymethyl-(1,4,7,10-tetrazaacyclododecyl)))-ethylcarbamoyloxymethyl)-2-nitrophenyl)-β-D-glucopyronuronate], the “relaxivity r1” value is “higher value” in data set [1] (setting [8]), 3.89 ± 0.05 mM⁻¹ s⁻¹ in data set [1] (setting [9]), 2.53 ± 0.01 mM⁻¹ s⁻¹ in data set [1] (setting [10]) and 4.73 mM⁻¹ s⁻¹ in data set [1] (setting [11]). Also, the “decrease of relaxivity on addition of carbonate to the buffers” value in data set [1] (pH=7.4) is on record as 20-30%. In data set [1] (acetate buffer, pH=5.0), the “decrease in relaxivity between the pure compounds (1 to 2)” value stood at 15%. In addition, in data set [1] (anion extracellular mimic), the “increase in relaxivity from 1 to 2 (dark to bright change)” value was 17%. Moreover, the “decline of relaxivity in anion extracellular mimic” value in data set [1] is recorded as 22%. Besides, the “relaxivity differential, 1 brighter than 2” value in data set [1] (human serum) amounted to 27%. The “increase in relaxivity on going from anion mimic to human serum” value in data set [1] was 240%. Also, the “drop in relaxivity upon going from 1 to 2” value in data set [1] (phosphate/BSA buffer (same trend as MOPS), pH=7.4) was 20%. In addition, the initial rate in data set [2] (phosphate/BSA (100 mM sodium phosphate, 0.01% BSA)) turned out to be 158 ± 34 nmol product/h/mg enzyme; in data set [2] (phosphate/BSA/carbonate (24 mM NaHCO3)) it was 148 ± 26 nmol product/h/mg enzyme. Further, the “time to complete conversion” value in data set [2] (pH=5 acetate buffer, enzyme concentration 10% of that at pH=7.4) was at most 45 min. Besides, in data set [2] (pH=7.4 versus literature pH=5.5 data), the “initial rate at pH=7.4 relative to standard substrate 4-methylumbelliferyl-β-D-glucuronide at pH=5.5” value is recorded as “roughly 8%”. Also, the “increase in T1 during enzyme incubation (levels off)” value in data set [3] (0.2 mM 1, 0.1 mg/ml β-glucuronidase, acetate buffer pH=5.0, around 35 min) is given as 15%. Besides, in data set [3] (0.2 mM 1, 1.0 mg/ml β-glucuronidase, human serum, over one hour, curve not saturated), the “increase in T1 during enzyme incubation” value worked out at 14%. Besides, in data set [4], the “decrease in T1 of substrate control without enzyme” value is reported as 2%. Further, in data set [5], the “presence of substrate in reaction mixture by LC/MS” value is “disappeared”.
Take `CC(O)CN1CCN(CC(=O)[O-])CCN(CC(=O)[O-])CCN(CC(=O)[O-])CC1.[Gd+3]` (stereo not drawn) [GdHP-DO3A, reference compound]: in data set [1] (setting [8]), the “relaxivity r1” value worked out at 2.99 ± 0.44 mM⁻¹ s⁻¹.
Take “Europium(III) 1-(4-(2-(1-(4,7,10-tris-carboxymethyl-(1,4,7,10-tetrazaacyclododecyl)))-ethylcarbamoyloxymethyl)-2-nitrophenyl)-β-D-glucopyronuronate [Compound 4]”: in data set [6] (D2O, excitation 394 nm, emission 614 nm), the “phosphorescent lifetime T(D2O)” value is 1.274 ms. The “q (inner-sphere water molecules)” value in data set [6] (Eu(III) fluorescence, absence of buffer salts) amounted to 1; in data set [6] (equation from Beeby et al.), 1.04; in data set [6] (equation of Supkowski and Horrocks), 0.89. Besides, the “phosphorescent lifetime T (H2O)” value in data set [6] (H2O, excitation 394 nm, emission 614 nm) is 0.527 ms.
Take `O=[N+]([O-])c1cc(CO)ccc1O` [4-hydroxy-3-nitrobenzyl alcohol]: in data set [7], the pKa entry is given as “about 7.5”.
In the case of `NCCN1CCN(CC(=O)[O-])CCN(CC(=O)[O-])CCN(CC(=O)[O-])CC1.[Gd+3]` [Compound 2, Gadolinium(III)1-(2-aminoethyl)-4,7,10-(tris-carboxymethyl)-(1,4,7,10-tetrazaacyclododecane)], the “relaxivity r1” value in data set [1] (setting [8]) was “comparable to GdHP-DO3A”; in data set [1] (setting [9]), 4.16 ± 0.09 mM⁻¹ s⁻¹; in data set [1] (setting [10]), 2.16 ± 0.04 mM⁻¹ s⁻¹; in data set [1] (setting [11]), 3.68 mM⁻¹ s⁻¹. Further, the “decrease of relaxivity on addition of carbonate to the buffers” value in data set [1] (pH=7.4) is recorded as “remained the same within error”. In data set [1], the “decline of relaxivity in anion extracellular mimic” value stood at 6%. Further, the “increase in relaxivity on going from anion mimic to human serum” value in data set [1] was 150%.
